Data on six compounds can be found in patent US7790706B2, “Treatment of inflammation with 5α reduced metabolites” (The University of Edinburgh, priority 2002, dated 2010).

Series [1] has as its target T1, glucocorticoid receptor (GR) (Homo sapiens, UniProt P04150).
T1 construct: expressed in transfected cells; host or cells: HeLa cells
T1 sequence (P04150 1-777): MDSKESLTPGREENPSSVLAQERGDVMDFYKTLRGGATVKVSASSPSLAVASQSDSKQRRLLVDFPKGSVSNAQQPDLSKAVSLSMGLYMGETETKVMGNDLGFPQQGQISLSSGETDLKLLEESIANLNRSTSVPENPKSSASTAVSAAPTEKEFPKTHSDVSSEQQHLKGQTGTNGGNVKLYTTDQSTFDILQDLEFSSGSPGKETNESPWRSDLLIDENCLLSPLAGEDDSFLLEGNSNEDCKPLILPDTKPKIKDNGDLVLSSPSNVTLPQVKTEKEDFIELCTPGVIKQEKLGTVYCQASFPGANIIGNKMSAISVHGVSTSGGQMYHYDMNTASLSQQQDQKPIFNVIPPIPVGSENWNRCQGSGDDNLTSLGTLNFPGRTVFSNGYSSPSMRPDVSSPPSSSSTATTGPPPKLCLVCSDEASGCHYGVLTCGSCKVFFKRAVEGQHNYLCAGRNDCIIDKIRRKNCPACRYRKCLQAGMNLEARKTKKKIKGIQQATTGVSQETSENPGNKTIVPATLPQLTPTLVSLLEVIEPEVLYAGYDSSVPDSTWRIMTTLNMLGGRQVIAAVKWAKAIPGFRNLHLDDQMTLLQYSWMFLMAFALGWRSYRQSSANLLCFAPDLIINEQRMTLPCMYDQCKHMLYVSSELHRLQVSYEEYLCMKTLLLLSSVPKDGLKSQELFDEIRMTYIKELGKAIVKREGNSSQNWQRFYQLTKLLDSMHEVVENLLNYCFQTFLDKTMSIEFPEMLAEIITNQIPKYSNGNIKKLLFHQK
The series is described as follows: GR activation reporter: Hela cells transfected with GR and MMTV-luciferase. It is filed as cell-based. The conditions noted are these: for Induction of luciferase (GR activation), Example 5 / luciferase induction in response to activation of GR / luciferase induction in cells without GR: 1 micromol/l; for luciferase induction in response to activation of GR: Hela cells transfected with GR and MMTV-luciferase; for luciferase induction in cells without GR: Hela cells transfected with luciferase but without GR. The protocol: Comparative potency Fold induction of luciferase activity as a consequence of GR activation in Hela cells transfected with GR and luciferase under the control of a GRE and MMTV promoter (n=3). All steroids at 1 μM. Dex=dexamethasone; B=corticosterone; αDHB=5α-dihydrocorticosterone; αTHB=5α-tetrahydrocorticosterone; βDHB=5β-dihydrocorticosterone; βTHB=5β-tetrahydrocorticosterone. *indicates p<0.05 and ***p<0.001 in comparison with corticosterone. 5α-reduced metabolites of corticosterone activate glucocorticoid receptors with similar potency as corticosterone (B). […] 5β-reduced metabolites have no effect.
Dose response. Fold induction of luciferase activity as a consequence of GR activation in Hela cells transfected with GR and luciferase under the control of a GRE and MMTV promoter (n=3).
Corticosterone (B) and 5α-tetrahydrocorticosterone (5αTHB) or vehicle (LTR) were added to the medium (with final steroid concentrations of 1 micromol/l) of Hela cells transfected with GR and a plasmid expressing luciferase under the control of an MMTV glucocorticoid responsive promoter (grey bars) and in transfected cells with luciferase but without GR (open bars).
HeLa cells were transfected with glucocorticoid receptor (GR) and MMTV-luciferase (LTR) as a glucocorticoid sensitive reporter. Induction of luciferase was measured in response to addition of 5α-tetrahydrocorticosterone (5α-THB) with and without corticosterone (B). Data (mean±SEM, n=6) show responses to individual steroids, then the additive responses predicted (Sum) and observed (Actual).
HeLa cells were transfected with glucocorticoid receptor (GR) and MMTV-luciferase (LTR) as a glucocorticoid sensitive reporter. Induction of luciferase was measured in response to addition of 1 micromol/l concentrations of corticosterone (B), cortisol (F), 5alpha-dihydrocortisol (DHF5a) and 5alpha-tetrahydrocortisol (THF5a).

Series [2] relates to gluconeogenic enzymes in liver. The conditions noted are these: Golf et al 1984; cited from earlier work.
For series [3], the system named is glucocorticoid receptors (GR) in hepatocytes. The series is described as follows: Binding to glucocorticoid receptor in hepatocytes (3H-dexamethasone displacement). The conditions noted are these: 24° C., 1 h, compared with corticosterone (B). Here is the method:
Hepatocytes were incubated at 24° C. for 1 h in the presence of ^3H-dexamethasone and increasing concentrations of dexamethasone in the concentration range 0.632 nM to 200 μM. Cells were harvested and the radioactivity bound was determined by β-scintillation counting. *=p<0.001 versus B. The results are shown in FIG. 1.

The subject of series [4] is neuronal long-term potentiation. The conditions noted are these: Dubrovsky et al 1987; cited from earlier work.
For the next series, the target named is T2, glucocorticoid receptors (Rattus norvegicus, UniProt P06536).
T2 sequence (P06536 1-795): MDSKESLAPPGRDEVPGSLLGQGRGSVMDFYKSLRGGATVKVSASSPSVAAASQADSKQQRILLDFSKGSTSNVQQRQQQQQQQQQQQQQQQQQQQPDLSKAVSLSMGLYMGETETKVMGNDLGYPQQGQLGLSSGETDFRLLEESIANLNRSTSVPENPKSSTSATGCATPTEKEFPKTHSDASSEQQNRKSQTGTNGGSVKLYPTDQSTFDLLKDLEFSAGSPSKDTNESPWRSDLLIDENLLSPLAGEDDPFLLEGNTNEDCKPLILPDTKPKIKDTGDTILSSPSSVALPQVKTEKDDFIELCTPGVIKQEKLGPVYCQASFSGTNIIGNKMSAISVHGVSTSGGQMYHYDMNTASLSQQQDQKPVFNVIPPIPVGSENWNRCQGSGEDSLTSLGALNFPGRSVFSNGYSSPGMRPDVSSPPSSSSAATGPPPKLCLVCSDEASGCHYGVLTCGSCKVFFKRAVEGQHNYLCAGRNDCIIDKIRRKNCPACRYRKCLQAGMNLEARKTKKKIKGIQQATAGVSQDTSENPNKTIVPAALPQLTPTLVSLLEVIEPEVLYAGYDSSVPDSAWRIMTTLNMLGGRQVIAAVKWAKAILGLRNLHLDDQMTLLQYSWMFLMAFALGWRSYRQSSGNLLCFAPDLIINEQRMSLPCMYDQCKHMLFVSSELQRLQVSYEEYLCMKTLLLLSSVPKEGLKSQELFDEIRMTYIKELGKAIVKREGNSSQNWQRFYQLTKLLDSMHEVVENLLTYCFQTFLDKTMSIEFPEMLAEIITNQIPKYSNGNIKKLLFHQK
The note with it: Carlstedt-Duke et al 1977; cited from earlier work.

Series [5] relates to tyrosine amino transferase (TAT) mRNA in H4iiE cells. The series is described as follows: Induction of tyrosine amino transferase (TAT) mRNA in H4iiE cells (Northern blot). It counts as cell-based. The conditions noted are these: 1 micromol/l; for Induction of TAT mRNA: Northern blot corrected for U1; for Induction of TAT mRNA in presence of RU486: plus GR antagonist RU486. Here is the method:
Induction of the glucocorticoid-responsive enzyme tyrosine amino transferase (TAT) mRNA was measured by Northern blot in H4iiE cells incubated in the presence of corticosterone (B, 1 micromol/l) or 5α-tetrahydrocorticosterone (5α-THB, 1 micromol/l) or vehicle.

In the next series the test system is ACTH levels. The series is described as follows: ACTH suppression in adrenalectomised rats. It counts as in vivo, Male lean Zucker rats. The note with it: 5 mg/kg intraperitoneal, 2 hours after injection, immunoassay. The protocol: Male lean Zucker rats aged ˜9 weeks were adrenalectomised. 3 weeks later, samples were obtained by tail tipping before and for 3 hours after intraperitoneal injection of either vehicle, corticosterone (B, 5 mg/kg body weight) or 5alpha-tetrahydrocorticosterone (THB5a, 5 mg/kg body weight). […] This is consistent with activation of glucocorticoid receptors at sites responsible for feedback suppression of the hypothalamic-pituitary-adrenal axis (principally pituitary, hypothalamus and hippocampus).

The test system of the next series is mouse aortic ring. Nature of the series: Angiogenesis bioassay, aortic ring embedded in matrigel. It counts as cell-based. The note with it: 7 days; for number of new vessels forming (angiogenesis): B 600 nmol/l, 5alpha-THB 1000 nmol/l; for angiogenesis effect in presence of RU486: plus GR antagonist RU486. Here is the method: In this bioassay, the number of new vessels forming is measured over 7 days in a mouse aortic ring embedded in matrigel.

Setting [6] is: HeLa cells, GR and MMTV-luciferase.
Setting [7] is: Hela cells transfected with GR and GRE/MMTV-luciferase, n=3.

SMILES strings stand for the structures. “Also recorded” adds a separate entry of the source.

In the case of `C[C@]12CCC(=O)C[C@@H]1CC[C@@H]1[C@@H]2[C@@H](O)C[C@@]2(C)[C@H]1CC[C@]2(O)C(=O)CO` [5alpha-dihydrocortisol], the “Induction of luciferase (GR activation), Example 5” value (“Induction of luciferase … Example 5” below) in series [1] (setting [6]) is recorded as “induced significant GR activation”.
On the same count and under the same terms, the entry for `C[C@]12CC[C@@H](O)C[C@@H]1CC[C@@H]1[C@@H]2[C@@H](O)C[C@@]2(C)[C@H]1CC[C@]2(O)C(=O)CO` [5alpha-tetrahydrocortisol] is “induced significant GR activation”.
Regarding `C[C@]12CCC(=O)C[C@@H]1CC[C@@H]1[C@@H]2[C@@H](O)C[C@]2(C)[C@@H](C(=O)CO)CC[C@@H]12` [5α-dihydrocorticosterone], the “activity of gluconeogenic enzymes in liver” value in series [2] was “lowering activity of gluconeogenic enzymes in liver”. In addition, in series [3], the “binding affinity for glucocorticoid receptors (GR)” value is “lower binding affinities”. Besides, in series [4], the “effect on neuronal long-term potentiation” value is on record as “inhibition of neuronal long-term potentiation”. The “binding to glucocorticoid receptors, judged by displacement of bound dexamethasone” value on glucocorticoid receptors is given as “does not bind to glucocorticoid receptors”.
With `C[C@]12CC[C@@H](O)C[C@@H]1CC[C@@H]1[C@@H]2[C@@H](O)C[C@]2(C)[C@@H](C(=O)CO)CC[C@@H]12` [5α-tetrahydrocorticosterone], in series [5], the “Induction of TAT mRNA” value was “induced TAT mRNA transcription” and the “Induction of TAT mRNA in presence of RU486” value is “blocked”. The “ACTH levels compared with vehicle” value in the series on ACTH levels was “significantly suppressed ACTH levels”. The “binding affinity for glucocorticoid receptors (GR)” value in series [3] is “equivalent binding affinity”. For the same compound, the “agonist type at GR (observed versus predicted additive luciferase response)” value in series [1] (HeLa cells, GR and MMTV-luciferase, with and without corticosterone, n=6) is recorded as “full rather than partial agonist of GR”. Moreover, the “Fold induction of luciferase activity as a consequence of GR activation (comparative potency)” value in series [1] (Hela cells transfected with GR and GRE/MMTV-luciferase, all steroids at 1 μM, n=3) was “more potent than 5α-dihydrocorticosterone”. Further, the “Fold induction of luciferase activity as a consequence of GR activation (dose response)” value in series [1] (setting [7]) is “activate a glucocorticoid receptor-dependent response; also recorded: lesser effect than corticosterone”. Besides, in series [1], the “luciferase induction in response to activation of GR” value is on record as “activated GR” and the “luciferase induction in cells without GR” value is given as “abolished in the absence of transfected receptor”. Also, in the series on mouse aortic ring, the “number of new vessels forming (angiogenesis)” value is “prevents angiogenesis” and the “angiogenesis effect in presence of RU486” value was “also blocked by RU486”.
`C[C@]12C[C@H](O)[C@H]3[C@@H](CCC4=CC(=O)CC[C@@]43C)[C@@H]1CC[C@@H]2C(=O)CO` [corticosterone, reference compound]: in series [5], the “Induction of TAT mRNA” value is “induced TAT mRNA transcription” and the “Induction of TAT mRNA in presence of RU486” value is “blocked”. Also, the “ACTH levels compared with vehicle” value in the series with ACTH levels is listed as “significantly suppressed ACTH levels”. The “Induction of luciferase … Example 5” value in series [1] (setting [6]) is “induced significant GR activation”. Further, the “Fold induction of luciferase activity as a consequence of GR activation (dose response)” value in series [1] (setting [7]) is “activate a glucocorticoid receptor-dependent response”. Further, in series [1], the “luciferase induction in response to activation of GR” value is “activated GR” and the “luciferase induction in cells without GR” value is on record as “abolished in the absence of transfected receptor”. Further, in the series on mouse aortic ring, the “number of new vessels forming (angiogenesis)” value is “inhibits angiogenesis” and the “angiogenesis effect in presence of RU486” value is given as “blocked”.
Regarding `C[C@]12CCC(=O)C=C1CC[C@@H]1[C@@H]2[C@@H](O)C[C@@]2(C)[C@H]1CC[C@]2(O)C(=O)CO` [cortisol, reference compound], the “Induction of luciferase … Example 5” value in series [1] (setting [6]) was “induced significant GR activation”.
